{"source": "PubChem BioAssay AID1205", "about": "(EPA DSSTox, 2008)", "note": "The source made the active and inactive calls.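 The calls were made as follows: active = tumour findings in long-term animal cancer tests in more than one sex, species or organ; inactive = no tumour finding and more than one negative test.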 *1 amine or outer side, *2 acyl side, *3 side chain or, on linkers, in order; H or OH if unused. Where a SMILES comes first, the peptide text is derived from it. Bridges are numbered along the chain shown (N, C = ends). Roman numbers before positions name the chains, in order. [ ]: non-standard residue; d: D form. Actinocin(9to1) = Cc1c2oc3c(C)ccc(C(=O)[*:1])c3nc-2c(C(=O)[*:2])c(N)c1=O; NMeV = CN[C@H](C(=O)O)C(C)C; Sar = CNCC(=O)O", "data": [{"assay": "DSSTox (CPDBAS) Carcinogenic Potency Database Summary MultiCellCall Results", "settings": "animal carcinogenicity bioassays, multi-cell call summary", "excerpt": "The Carcinogenic Potency Database (CPDB) is a unique and widely used international resource of the results of over 6500 chronic, long-term animal cancer tests on over 1500 chemical substances. The CPDB provides easy access to the bioassay literature, with qualitative and quantitative analyses of both positive and negative experiments that have been published over the past 50 years in the general literature and by the National Cancer Institute/National Toxicology Program. The CPDB standardizes the diverse literature of cancer bioassays that vary widely in protocol, histopathological examination and nomenclature, and in the published author's choices of what information to provide in their papers. Results are reported in the CPDB for tests in rats, mice, hamsters, dogs, and nonhuman primates, and are based on the most positive result among all experiments for each sex-species. The DSSTox CPDBAS (all species) file incorporates data from the CPDB Summary Tables for the full list of over 1500 chemical substances tested in at least one species. A summary MultiCellCall, based on experimental bioassay results of one or more species, is provided in the DSSTox CPDBAS file (see Source URL) for more than 1150 chemical substances.\nAssociated TD50 values and tumor site details for the relevant species/sex experiment supporting the overall CPDBAS MultiSiteCall are provided in the full DSSTox CPDBAS file (see Comment) and the corresponding CPDBAS Species Bioassay in PubChem. ActivityScore is computed as follows: multispecies=50, multisex=30, multisite=20, with combination scores computed as sums of these values, e.g. multispecies+multisite=70.", "values": [{"smiles": "O=C(O)c1cccnc1", "outcome": "inactive; multisex inactive"}, {"smiles": "N#CC(c1ccccc1)c1ccccc1", "outcome": "inactive; multisex inactive"}, {"smiles": "[O-][Br+2]([O-])O", "outcome": "active; multisite active; multisex active; multispecies active"}, {"smiles": "CC(Cc1ccccc1)NN", "note": "(centres undefined)", "outcome": "inactive; multisex inactive"}, {"smiles": "NC(=O)c1ccncc1", "outcome": "inactive; multisex inactive"}, {"smiles": "OCC(CO)(CBr)CBr", "outcome": "active; multisite active; multisex active; multispecies active"}, {"smiles": "Nc1ccc(Oc2ccc(Cl)cc2)cc1", "outcome": "active; multisite active; multisex active; multispecies active"}, {"smiles": "CCN(N=O)C(=O)NCCO", "outcome": "active; multisite active; multisex active; multispecies active"}, {"smiles": "C[C@@H]1CC2(O[C@@H]2C)C(=O)O[C@@H]2CCN(C)C/C=C(/COC(=O)[C@]1(C)O)C2=O", "note": "(some centres undefined)", "outcome": "active; multisite active; multisex active"}, {"smiles": "NC1CCCCC1", "outcome": "inactive; multisex inactive; multispecies inactive"}, {"smiles": "CCN(CC)N=O", "outcome": "active; multisite active; multisex active; multispecies active"}, {"smiles": "CC1(C)S[C@@H]2[C@H](NC(=O)COc3ccccc3)C(=O)N2[C@H]1C(=O)O", "outcome": "inactive; multisex inactive; multispecies inactive"}, {"smiles": "COc1cc(S(C)=O)ccc1-c1nc2ccncc2[nH]1", "note": "(centres undefined)", "outcome": "active; multisex active"}, {"smiles": "COCCl", "outcome": "active; multispecies active"}, {"smiles": "CC[C@H]1OC(=O)C[C@@H](O)[C@H](C)[C@@H](O[C@@H]2O[C@H](C)[C@@H](O[C@H]3C[C@@](C)(O)[C@@H](O)[C@H](C)O3)[C@H](N(C)C)[C@H]2O)[C@@H](CC=O)C[C@@H](C)C(=O)/C=C/C(C)=C/C1CO[C@@H]1O[C@H](C)[C@@H](O)[C@@H](OC)[C@H]1OC", "note": "(some centres undefined)", "outcome": "inactive; multisex inactive"}, {"smiles": "CCCCCCCCCCCCN(C)N=O", "outcome": "active; multisite active; multisex active"}, {"smiles": "C[C@@H]1CCC[C@H](C)N1CCCC(O)(c1ccccc1)c1ccccn1", "note": "(some centres undefined)", "outcome": "inactive; multisex inactive; multispecies inactive"}, {"smiles": "Nc1ccc(/C=C/c2ccc(N)cc2S(=O)(=O)O)c(S(=O)(=O)O)c1", "outcome": "inactive; multisex inactive; multispecies inactive"}, {"smiles": "CCCCN(CCCC)C(=S)[S-].CCCCN(CCCC)C(=S)[S-].[Zn+2]", "outcome": "inactive; multisex inactive"}, {"smiles": "CC(O)CN(C)c1ccc(NN)nn1", "note": "(centres undefined)", "outcome": "inactive; multisex inactive"}, {"smiles": "CCN(Cc1cccc(S(=O)(=O)O)c1)c1ccc(C(=C2C=CC(=[N+](CC)Cc3cccc(S(=O)(=O)O)c3)C=C2)c2ccc(O)cc2S(=O)(=O)[O-])cc1", "outcome": "inactive; multisex inactive; multispecies inactive"}, {"smiles": "c1ccc(-c2ccccc2)cc1", "outcome": "inactive; multisex inactive"}, {"smiles": "Cc1cc(Cc2ccc(N)c(C)c2)ccc1N", "outcome": "active; multisite active; multisex active"}, {"smiles": "CN(C)C(=S)SC(=S)N(C)C", "outcome": "inactive; multisex inactive"}, {"smiles": "CC(=O)Nc1ccc(C(=O)CCl)cc1", "outcome": "inactive; multisex inactive; multispecies inactive"}, {"smiles": "S=C(SSSSSSC(=S)N1CCCCC1)N1CCCCC1", "outcome": "inactive; multisex inactive"}, {"smiles": "ClC(Cl)(Cl)c1ccccc1", "outcome": "active; multisite active"}, {"smiles": "CN(C)c1ccc(C(=N)c2ccc(N(C)C)cc2)cc1", "outcome": "active; multisex active; multispecies active"}, {"smiles": "CN1CCC[C@H]1c1cccnc1", "outcome": "inactive; multisex inactive"}, {"smiles": "CC(C)CCC[C@@H](C)[C@H]1CC[C@H]2[C@@H]3CC=C4C[C@@H](OC(=O)Cc5ccc(N(CCCl)CCCl)cc5)CC[C@]4(C)[C@H]3CC[C@]12C", "outcome": "active; multisite active; multisex active; multispecies active"}, {"smiles": "CCCCCN(CCCCC)N=O", "outcome": "active; multisex active"}, {"smiles": "Cc1ccc(Cl)cc1N", "outcome": "active; multisite active; multisex active"}, {"smiles": "CC(=O)OC[C@]12C[C@H](OC(=O)CC(C)C)C(C)=C[C@H]1O[C@@H]1[C@H](O)[C@@H](OC(C)=O)[C@@]2(C)C12CO2", "note": "(some centres undefined)", "outcome": "active; multisite active"}, {"smiles": "C1CCC(C(CC2CCCCN2)C2CCCCC2)CC1", "note": "(centres undefined)", "outcome": "inactive; multisex inactive"}, {"smiles": "O=NN1CCOC1=O", "outcome": "active; multisite active"}, {"smiles": "[C-]1=CC=CC1.[C-]1=CC=CC1.[Cl-].[Cl-].[Ti+4]", "outcome": "inactive; multisex inactive"}, {"smiles": "CCCCC1(COC(=O)CCC(=O)O)C(=O)N(c2ccccc2)N(c2ccccc2)C1=O", "outcome": "inactive; multisex inactive"}, {"smiles": "NC(=O)N(CCc1ccccc1)N=O", "outcome": "active; multisite active; multisex active"}, {"smiles": "CCCCCCCCCCCC[N+](C)(C)[O-]", "outcome": "inactive; multisex inactive"}, {"smiles": "CC(=O)O[C@H]1CC[C@@]2(C)C(=CC[C@@H]3[C@@H]2CC[C@]2(C)C(=O)CC[C@@H]32)C1", "outcome": "active; multisex active"}, {"smiles": "COc1cc(N)ccc1N=Nc1ccccc1", "outcome": "inactive; multisex inactive"}, {"smiles": "CCNC(=O)Nc1ncc([N+](=O)[O-])s1", "outcome": "active; multisite active; multisex active; multispecies active"}, {"smiles": "NC(=O)c1cnccn1", "outcome": "inactive; multisex inactive; multispecies inactive"}, {"smiles": "NC(=O)NNc1ccccc1", "outcome": "active; multisex active"}, {"smiles": "CNC[C@H](O)c1cccc(O)c1", "outcome": "inactive; multisex inactive; multispecies inactive"}, {"smiles": "C=C/C1=C/[C@H](C)[C@](C)(OC(C)=O)C(=O)OCC2=CC[N+]3(C)CC[C@@H](OC1=O)C23[O-]", "note": "(some centres undefined)", "outcome": "active; multisite active"}, {"smiles": "CCN(CC)C(=S)SSC(=S)N(CC)CC", "outcome": "inactive; multisex inactive; multispecies inactive"}, {"smiles": "NNc1nc(-c2ccc(N)cc2)cs1", "outcome": "active; multisite active; multispecies active"}, {"smiles": "CN(C)[C@@H]1C(=O)C(C(N)=O)=C(O)[C@@]2(O)C(=O)C3=C(O)c4c(O)cccc4[C@@](C)(O)[C@H]3[C@H](O)[C@@H]12", "outcome": "inactive; multisex inactive; multispecies inactive"}, {"smiles": "CC(=O)Nc1ccc(OCC(O)CNC(C)C)cc1", "note": "(centres undefined)", "outcome": "inactive; multisex inactive; multispecies inactive"}, {"smiles": "Nc1ncc([N+](=O)[O-])s1", "outcome": "active; multisite active"}, {"smiles": "N[C@@H](CC(=O)O)C(=O)O", "outcome": "inactive; multisex inactive"}, {"smiles": "O=c1[nH]c(=O)n(C2CCCO2)cc1F", "note": "(centres undefined)", "outcome": "inactive; multisex inactive; multispecies inactive"}, {"smiles": "CN(C)c1ccc(N=NS(=O)(=O)O)cc1", "outcome": "inactive; multisex inactive; multispecies inactive"}, {"smiles": "CN(C)N", "outcome": "active; multisite active; multisex active; multispecies active"}, {"smiles": "OCCBr", "outcome": "active; multisex active"}, {"smiles": "C=CC(=O)NCO", "outcome": "active; multisite active; multisex active"}, {"smiles": "O=C1OC(c2ccc(O)cc2)(c2ccc(O)cc2)c2ccccc21", "outcome": "active; multisite active; multisex active; multispecies active"}, {"smiles": "[Na+]", "outcome": "inactive; multisex inactive; multispecies inactive"}, {"smiles": "O=C1OC(O)C(C(Cl)Cl)=C1Cl", "note": "(centres undefined)", "outcome": "active; multisite active; multisex active"}, {"smiles": "C=CCN(CC(C)=O)N=O", "outcome": "active; multisite active; multispecies active"}, {"smiles": "N[C@@H](Cc1cnc[nH]1)C(=O)O", "outcome": "inactive; multisex inactive"}, {"smiles": "CC(=O)CN(C)N=O", "outcome": "active; multisite active; multisex active"}, {"smiles": "COc1cc2c(c3oc(=O)c4c(c13)CCC4=O)C1C=COC1O2", "note": "(centres undefined)", "outcome": "active; multisite active; multisex active; multispecies active"}, {"smiles": "CCCCNN", "outcome": "active; multisex active"}, {"smiles": "O=C1Nc2ccc(Cl)cc2C(c2ccccc2)=NC1O", "note": "(centres undefined)", "outcome": "active; multisite active; multisex active"}, {"smiles": "Cc1c2oc3c(C)ccc(C(=O)N[C@@H]4C(=O)N[C@H](C(C)C)C(=O)N5CCC[C@H]5C(=O)N(C)CC(=O)N(C)[C@@H](C(C)C)C(=O)O[C@@H]4C)c3nc-2c(C(=O)N[C@@H]2C(=O)N[C@H](C(C)C)C(=O)N3CCC[C@H]3C(=O)N(C)CC(=O)N(C)[C@@H](C(C)C)C(=O)O[C@@H]2C)c(N)c1=O", "note": "(I: T[dV]P[Sar][NMeV] / II: T[dV]P[Sar][NMeV]; ester I:1-I:C, II:1-II:C; linker I:N-II:N via Actinocin(9to1))", "outcome": "active; multisex active"}, {"smiles": "Cc1c(N(C)C)c(=O)n(-c2ccccc2)n1C", "outcome": "inactive; multisex inactive"}, {"smiles": "Clc1ccc2c(c1)C(c1ccccc1)=NCc1nncn1-2", "outcome": "inactive; multisex inactive; multispecies inactive"}, {"smiles": "O=C(O)COc1cc(Cl)c(Cl)cc1Cl", "outcome": "inactive; multisex inactive; multispecies inactive"}, {"smiles": "O=C(OOC(=O)c1ccccc1)c1ccccc1", "outcome": "inactive; multispecies inactive"}, {"smiles": "O=[N+]([O-])c1cc([As](=O)(O)O)ccc1O", "outcome": "inactive; multisex inactive; multispecies inactive"}, {"smiles": "Nc1c(Cl)cc([N+](=O)[O-])cc1Cl", "outcome": "inactive; multisex inactive"}, {"smiles": "CCCCN(N)CCCC", "outcome": "active; multisite active; multisex active"}, {"smiles": "CCCCNC(=O)N(CCCC)N=O", "outcome": "active; multisite active"}, {"smiles": "O=[N+]([O-])O", "outcome": "inactive; multisex inactive"}, {"smiles": "CCCCCCc1ccc(O)cc1O", "outcome": "inactive; multisex inactive; multispecies inactive"}, {"smiles": "O=C1CCC(=O)O1", "outcome": "inactive; multisex inactive; multispecies inactive"}, {"smiles": "Cc1ccccc1N", "outcome": "active; multisite active; multisex active; multispecies active"}, {"smiles": "O=[N+]([O-])c1ccc(Cl)c([N+](=O)[O-])c1", "outcome": "inactive; multisex inactive; multispecies inactive"}, {"smiles": "C=CCOC(=O)c1ccccc1C(=O)OCC=C", "outcome": "inactive; multisex inactive; multispecies inactive"}, {"smiles": "CCOP(=S)(OCC)Oc1ccc2c(C)c(Cl)c(=O)oc2c1", "outcome": "inactive; multisex inactive; multispecies inactive"}, {"smiles": "CCN(N=O)C(N)=O", "outcome": "active; multisite active; multisex active"}, {"smiles": "O=C1C2CC=CCC2C(=O)N1SC(Cl)(Cl)Cl", "note": "(centres undefined)", "outcome": "active; multisite active; multisex active; multispecies active"}]}]}
